In the NIST ThermoML archive (doi:10.1016/j.jct.2006.08.008):

How the values were obtained:
[1] = mn = molality of the nth substance listed, in mol/kg; conditions: 350 kPa, Liquid
[2] = molar heat capacity at constant pressure; mn = molality of the nth substance listed, in mol/kg; conditions: 350 kPa, Liquid

N[C@@H](CC(=O)O)C(=O)O [L-aminosuccinic acid] + O
Conditions | mass density, m1 = 0.002 [kg/m3] | mass density, m1 = 0.004 [kg/m3] | mass density, m1 = 0.00601 [kg/m3] | mass density, m1 = 0.00801 [kg/m3] | mass density, m1 = 0.01 [kg/m3] | molar heat capacity at constant pressure, m1 = 0.002 [J/K/mol] | molar heat capacity at constant pressure, m1 = 0.004 [J/K/mol] | molar heat capacity at constant pressure, m1 = 0.00601 [J/K/mol] | molar heat capacity at constant pressure, m1 = 0.00801 [J/K/mol] | molar heat capacity at constant pressure, m1 = 0.01 [J/K/mol]
[1], 278.15 K | 1000.34 | 1000.29 | 1000.42 | 1000.62 | 1000.79 | – | – | – | – | –
[1], 283.15 K | 1000.09 | 1000.05 | 1000.2 | 1000.36 | 1000.48 | – | – | – | – | –
[1], 288.15 K | 999.47 | 999.41 | 999.59 | 999.76 | 999.84 | – | – | – | – | –
[1], 298.15 K | 997.39 | 997.34 | 997.51 | 997.69 | 997.73 | – | – | – | – | –
[1], 308.15 K | 994.35 | 994.31 | 994.5 | 994.64 | 994.7 | – | – | – | – | –
[1], 318.15 K | 990.53 | 990.51 | 990.66 | 990.76 | 990.87 | – | – | – | – | –
[1], 328.15 K | 985.99 | 986.02 | 986.15 | 986.25 | 986.33 | – | – | – | – | –
[1], 338.15 K | 980.85 | 980.89 | 981.01 | 981.13 | 981.18 | – | – | – | – | –
[1], 348.15 K | 975.14 | 975.19 | 975.26 | 975.41 | 975.51 | – | – | – | – | –
[1], 358.15 K | 968.93 | 968.98 | 969.03 | 969.18 | 969.3 | – | – | – | – | –
[1], 368.15 K | 962.17 | 962.28 | 962.3 | 962.49 | 962.59 | – | – | – | – | –
[2], 278.15 K | – | – | – | – | – | 75.71 | 75.71 | 75.71 | 75.71 | 75.71
[2], 283.15 K | – | – | – | – | – | 75.54 | 75.54 | 75.54 | 75.54 | 75.54
[2], 288.15 K | – | – | – | – | – | 75.42 | 75.42 | 75.43 | 75.43 | 75.42
[2], 293.15 K | – | – | – | – | – | 75.34 | 75.34 | 75.35 | 75.35 | 75.35
[2], 298.15 K | – | – | – | – | – | 75.29 | 75.29 | 75.3 | 75.3 | 75.3
[2], 303.15 K | – | – | – | – | – | 75.26 | 75.26 | 75.27 | 75.27 | 75.27
[2], 308.15 K | – | – | – | – | – | 75.25 | 75.25 | 75.25 | 75.26 | 75.26
[2], 313.15 K | – | – | – | – | – | 75.25 | 75.25 | 75.25 | 75.26 | 75.26
[2], 318.15 K | – | – | – | – | – | 75.26 | 75.26 | 75.27 | 75.27 | 75.27
[2], 323.15 K | – | – | – | – | – | 75.28 | 75.28 | 75.29 | 75.29 | 75.29
[2], 328.15 K | – | – | – | – | – | 75.31 | 75.32 | 75.32 | 75.33 | 75.33
[2], 333.15 K | – | – | – | – | – | 75.35 | 75.36 | 75.36 | 75.37 | 75.37
[2], 338.15 K | – | – | – | – | – | 75.4 | 75.41 | 75.41 | 75.41 | 75.42
[2], 343.15 K | – | – | – | – | – | 75.46 | 75.47 | 75.47 | 75.47 | 75.48
[2], 348.15 K | – | – | – | – | – | 75.52 | 75.53 | 75.53 | 75.54 | 75.54
[2], 353.15 K | – | – | – | – | – | 75.6 | 75.61 | 75.61 | 75.61 | 75.61
[2], 358.15 K | – | – | – | – | – | 75.68 | 75.69 | 75.69 | 75.69 | 75.69
[2], 363.15 K | – | – | – | – | – | 75.76 | 75.77 | 75.77 | 75.78 | 75.78
[2], 368.15 K | – | – | – | – | – | 75.86 | 75.87 | 75.87 | 75.87 | 75.87
[2], 373.15 K | – | – | – | – | – | 75.96 | 75.97 | 75.97 | 75.97 | 75.98
[2], 378.15 K | – | – | – | – | – | 76.07 | 76.08 | 76.08 | 76.09 | 76.09
[2], 383.15 K | – | – | – | – | – | 76.2 | 76.2 | 76.2 | 76.21 | 76.21
[2], 388.15 K | – | – | – | – | – | 76.33 | 76.34 | 76.33 | 76.34 | 76.34
[2], 393.15 K | – | – | – | – | – | 76.47 | 76.48 | 76.48 | 76.48 | 76.48
